How the values were obtained:
[1] = system: angiotensin converting enzyme (ACE); assay: Inhibition of the angiotensin-induced rise in blood pressure in rats after oral administration (illustrative test, ACE inhibitory effect); type: in vivo, male rats (Spraque-Dawleg); conditions: angiotensin I 300 ng/kg and angiotensin II 100 ng/kg i.v., maximum blood pressure rise vs control
Method: (§1) The compounds [I] according to the present invention may be expected to be useful as a […], since they have an excellent ACE inhibitory effect. This has been well evidenced by an experiment using ACE extracted from rabbit lung and purified. The ACE inhibitory effect of the compounds of the present invention was determined according to the following illustrative test and the results will be shown in the following Table 1.
In this test, male rats (Spraque-Dawleg) of 250 to 350 g in weight were used, which were raised under conditions of free access to food and water.
The day before the test, each rat was narcotized by sodium pentobarbital (50 mg/kg) injected intraperitoneally. A polyethylene tube was inserted into a vein at the groin and fixed in order to introduce angiotensin and, further, another polyethylene tube was inserted into an artery at the groin and fixed to measure the blood pressure thereof. The blood pressure was determined by the use of an electronic sphygmomanometer (Nihon Kohden Kogyo Co., Ltd. type MP-4T).
Each rat was injected with 300 ng/kg of angiotensin I and 100 ng/kg of angiotensin II through the vein at the groin and the blood pressure recorded periodically and the maximum value of the rise in the blood pressure resulting from the injection of angiotensin was determined for use as a control.
Then, the percentage of inhibitory effect was determined by orally administering 13.8 μM/kg of a compound of the invention to each rat, and injecting 300 ng/kg of angiotensin I and 100 ng/kg of angiotensin II into the vein at the groin at periods of 20, 60 or 120 minutes after the administration of the compound, with maximum blood pressures being determined by periodically measuring the blood pressure and comparing each maximum value obtained with that of the controls.

[2] = molecular target: T1, angiotensin converting enzyme (ACE) (Oryctolagus cuniculus, UniProt P12822); assay: ACE inhibition in vitro with hippuryl-L-histidine-L-leucine as substrate (method of Biochemical Pharmacology, 20, 1637 (1971)); design: species or system rabbit (lung); conditions: read-out: 50% inhibition concentration (ID50)
T1 construct: ACE extracted from rabbit lung and purified; from tissue; host or cells: rabbit lung
T1 sequence (P12822 34-1310): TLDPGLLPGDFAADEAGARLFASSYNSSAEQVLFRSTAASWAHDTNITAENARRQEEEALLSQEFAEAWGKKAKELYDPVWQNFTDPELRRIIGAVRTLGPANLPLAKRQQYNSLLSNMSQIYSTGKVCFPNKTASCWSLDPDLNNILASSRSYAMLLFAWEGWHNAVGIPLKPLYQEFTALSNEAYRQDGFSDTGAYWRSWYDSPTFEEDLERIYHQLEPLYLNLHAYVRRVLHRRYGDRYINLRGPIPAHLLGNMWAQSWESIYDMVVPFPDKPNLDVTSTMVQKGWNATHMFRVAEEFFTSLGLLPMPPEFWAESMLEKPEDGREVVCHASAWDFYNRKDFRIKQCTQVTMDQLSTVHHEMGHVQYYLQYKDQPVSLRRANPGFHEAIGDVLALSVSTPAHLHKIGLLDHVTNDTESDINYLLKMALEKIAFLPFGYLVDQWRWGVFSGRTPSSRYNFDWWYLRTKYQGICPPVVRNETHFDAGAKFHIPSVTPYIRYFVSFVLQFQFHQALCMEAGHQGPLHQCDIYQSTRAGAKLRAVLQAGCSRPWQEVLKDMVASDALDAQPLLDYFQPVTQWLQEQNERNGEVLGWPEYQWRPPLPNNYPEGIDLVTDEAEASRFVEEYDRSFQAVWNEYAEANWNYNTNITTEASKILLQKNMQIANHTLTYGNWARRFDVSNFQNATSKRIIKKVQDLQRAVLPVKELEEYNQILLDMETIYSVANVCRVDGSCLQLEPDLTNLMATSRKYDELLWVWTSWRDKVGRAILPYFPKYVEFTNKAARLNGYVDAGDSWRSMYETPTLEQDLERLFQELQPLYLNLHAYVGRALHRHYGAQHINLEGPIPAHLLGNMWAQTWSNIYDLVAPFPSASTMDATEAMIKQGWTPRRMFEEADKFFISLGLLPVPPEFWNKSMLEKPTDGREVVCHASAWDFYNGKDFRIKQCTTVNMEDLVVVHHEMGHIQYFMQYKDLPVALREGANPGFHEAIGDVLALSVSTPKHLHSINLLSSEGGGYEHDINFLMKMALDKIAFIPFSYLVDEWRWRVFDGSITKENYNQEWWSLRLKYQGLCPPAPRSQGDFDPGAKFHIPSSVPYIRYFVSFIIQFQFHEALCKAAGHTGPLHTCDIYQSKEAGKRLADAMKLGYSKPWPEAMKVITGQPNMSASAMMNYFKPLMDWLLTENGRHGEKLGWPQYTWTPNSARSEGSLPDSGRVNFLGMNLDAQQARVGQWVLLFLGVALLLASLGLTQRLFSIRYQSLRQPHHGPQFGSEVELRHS
Method: as §1
The compounds of the present invention act to inhibite angiotensin converting enzyme which converts angiotensin I, produced by the action of the enzyme renin from angiotensinogen, to angiotensin II which acts as a pressor agent. Therefore, these compounds may be expected to be effective in the treatment of hypertension.

Row | Compound | Inhibition (%) ([1]; 20 min after oral 13.8 μM/kg) | Inhibition (%) ([1]; 60 min after oral 13.8 μM/kg) | Inhibition (%) ([1]; 120 min after oral 13.8 μM/kg) | IC50 [2] [nM]
1 | O=C(O)C1Cc2ccccc2C(=O)N1C(=O)CCS (centres unmarked) [Example 1, 2-(3-mercaptopropionyl)-1-oxo-1,2,3,4-tetrahydro-3-isoquinoline carboxylic acid] | 81 | 78 | 59 | 51
2 | CC(CS)C(=O)N1C(=O)c2ccccc2CC1C(=O)O (centres unmarked) [Example 2, 2-(3-mercapto-2-methylpropionyl)-1-oxo-1,2,3,4-tetrahydro-3-isoquinoline carboxylic acid] | 83 | 70 | 72 | 73
